#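 Each compound was tested at five concentrations against cells in 96-well plates for 48 hours. GI50 is the concentration that inhibits growth by half.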 The source made the active and inactive calls. No stated cut-off is given here; in the data, active = GI50 up to about 1.1 µM and inactive = higher.
# Legend:
# Experiment in all cases: NCI-60 cell line screen, 48 h
# [1] = system: HCT-15
# [2] = system: UO-31
# [3] = system: COLO 205
# [4] = system: RPMI-8226
# [5] = system: HL-60
# [6] = system: Malme-3M
# [7] = system: SN12C
# [8] = system: A498
# [9] = system: UACC-62
# [10] = system: XF498
# [11] = system: SNB-75
# [12] = system: SK-MEL-2
# [13] = system: SF-539
# [14] = system: M19-MEL
# [15] = system: NCI-H226
# [16] = system: HCT-116
# [17] = system: LXFL 529
# [18] = system: MOLT-4
# [19] = system: M14
# [20] = system: SK-OV-3
# [21] = system: HCC 2998
# [22] = system: OVCAR-5
# [23] = system: SF-268
# [24] = system: KM12
# [25] = system: DMS-114
# [26] = system: CCRF-CEM
# [27] = system: UACC-257
# [28] = system: NCI-H522
# [29] = system: ACHN
# [30] = system: SNB-19
# [31] = system: KM-20L2
# [32] = system: SF-295
# [33] = system: SNB-78
# [34] = system: DLD-1
# [35] = system: K562
# [36] = system: HT-29
# [37] = system: LOX IMVI
# [38] = system: RXF 631
# [39] = system: CAKI-1
# [40] = system: OVCAR-3
# [41] = system: SK-MEL-28
# [42] = system: A549
# [43] = system: SW-620
# [44] = system: OVCAR-8
# [45] = system: EKVX
# [46] = system: HOP-62
# [47] = system: RXF 393
# [48] = system: HOP-18
# [49] = system: SK-MEL-5
# [50] = system: U-251
# [51] = system: DMS-273
# [52] = system: NCI-H23
# [53] = system: OVCAR-4
# [54] = system: 786-0
# [55] = system: HOP-92
# [56] = system: TK-10
# [57] = system: IGROV-1
# [58] = system: SR
# [59] = system: NCI-H460
structure (smiles),measurement,setting,value
CCNC(=O)N(CC)CN(CC)C(=O)NCC,GI50,[1],> 100 µM
same,GI50,[2],> 100 µM (inactive)
same,GI50,[3],> 100 µM (inactive)
same,GI50,[4],> 100 µM (inactive)
same,GI50,[5],> 100 µM (inactive)
same,GI50,[6],> 100 µM (inactive)
same,GI50,[7],> 100 µM (inactive)
same,GI50,[8],> 100 µM (inactive)
same,GI50,[9],> 100 µM (inactive)
same,GI50,[10],> 100 µM (inactive)
same,GI50,[11],> 100 µM (inactive)
same,GI50,[12],> 100 µM (inactive)
same,GI50,[13],> 100 µM (inactive)
same,GI50,[14],> 100 µM (inactive)
same,GI50,[15],> 100 µM (inactive)
same,GI50,[16],> 100 µM (inactive)
same,GI50,[17],> 100 µM (inactive)
same,GI50,[18],> 100 µM (inactive)
same,GI50,[19],> 100 µM (inactive)
same,GI50,[20],> 100 µM (inactive)
same,GI50,[21],> 100 µM (inactive)
same,GI50,[22],> 100 µM (inactive)
same,GI50,[23],> 100 µM (inactive)
same,GI50,[24],> 100 µM (inactive)
same,GI50,[25],> 100 µM (inactive)
same,GI50,[26],> 100 µM (inactive)
same,GI50,[27],> 100 µM (inactive)
same,GI50,[28],> 100 µM (inactive)
same,GI50,[29],> 100 µM (inactive)
same,GI50,[30],> 100 µM (inactive)
same,GI50,[31],> 100 µM (inactive)
same,GI50,[32],> 100 µM (inactive)
same,GI50,[33],> 100 µM (inactive)
same,GI50,[34],> 100 µM (inactive)
same,GI50,[35],> 100 µM (inactive)
same,GI50,[36],> 100 µM (inactive)
same,GI50,[37],> 100 µM (inactive)
same,GI50,[38],> 100 µM (inactive)
same,GI50,[39],> 100 µM (inactive)
same,GI50,[40],> 100 µM (inactive)
same,GI50,[41],> 100 µM (inactive)
same,GI50,[42],> 100 µM (inactive)
same,GI50,[43],> 100 µM (inactive)
same,GI50,[44],> 100 µM (inactive)
same,GI50,[45],> 100 µM (inactive)
same,GI50,[46],> 100 µM (inactive)
COc1ccc(C2CCc3cc4c(cc3/C2=N/OC(C)=O)OCO4)cc1OC (centres undefined),GI50,[1],30.3 µM
same,GI50,[2],17.2 µM (inactive)
same,GI50,[3],22.5 µM (inactive)
same,GI50,[4],12.6 µM (inactive)
same,GI50,[6],20.1 µM (inactive)
same,GI50,[7],26.9 µM (inactive)
same,GI50,[9],18.2 µM (inactive)
same,GI50,[10],18.4 µM (inactive)
same,GI50,[11],18.3 µM (inactive)
same,GI50,[47],14 µM (inactive)
same,GI50,[12],27.8 µM (inactive)
same,GI50,[13],17.9 µM (inactive)
same,GI50,[14],22.1 µM (inactive)
same,GI50,[15],12.6 µM (inactive)
same,GI50,[16],14.2 µM (inactive)
same,GI50,[17],26.4 µM (inactive)
same,GI50,[48],26.7 µM (inactive)
same,GI50,[18],15.8 µM (inactive)
same,GI50,[19],20.6 µM (inactive)
same,GI50,[20],28.8 µM (inactive)
same,GI50,[22],32.9 µM (inactive)
same,GI50,[23],12.9 µM (inactive)
same,GI50,[24],20.8 µM (inactive)
same,GI50,[25],10.7 µM (inactive)
same,GI50,[26],25.6 µM (inactive)
same,GI50,[49],8.65 µM (inactive)
same,GI50,[27],18.4 µM (inactive)
same,GI50,[28],12 µM (inactive)
same,GI50,[30],39.3 µM (inactive)
same,GI50,[31],22.3 µM (inactive)
same,GI50,[50],23.8 µM (inactive)
same,GI50,[32],23 µM (inactive)
same,GI50,[33],41.4 µM (inactive)
same,GI50,[51],24.8 µM (inactive)
same,GI50,[35],20.2 µM (inactive)
same,GI50,[36],36.2 µM (inactive)
same,GI50,[52],10.4 µM (inactive)
same,GI50,[37],15.9 µM (inactive)
same,GI50,[53],27.1 µM (inactive)
same,GI50,[38],25.5 µM (inactive)
same,GI50,[54],32.5 µM (inactive)
same,GI50,[55],23.1 µM (inactive)
same,GI50,[40],15.3 µM (inactive)
same,GI50,[56],39 µM (inactive)
same,GI50,[41],18.4 µM (inactive)
same,GI50,[42],18.3 µM (inactive)
same,GI50,[43],27.4 µM (inactive)
same,GI50,[44],34.4 µM (inactive)
same,GI50,[45],29.2 µM (inactive)
same,GI50,[46],40.3 µM (inactive)
same,GI50,[57],24.3 µM (inactive)
Cn1c(=O)c(C(c2ccc([N+](=O)[O-])cc2)c2c(O)c3ccccc3n(C)c2=O)cc2ccccc21 (centres undefined),GI50,[1],45.8 µM
same,GI50,[2],35.2 µM (inactive)
same,GI50,[3],32.7 µM (inactive)
same,GI50,[4],41.8 µM (inactive)
same,GI50,[5],36.1 µM (inactive)
same,GI50,[6],26.7 µM (inactive)
same,GI50,[58],39.4 µM (inactive)
same,GI50,[7],57.7 µM (inactive)
same,GI50,[9],19.2 µM (inactive)
same,GI50,[10],55.3 µM (inactive)
same,GI50,[11],23 µM (inactive)
same,GI50,[47],26.4 µM (inactive)
same,GI50,[12],59.6 µM (inactive)
same,GI50,[13],43.6 µM (inactive)
same,GI50,[14],35.5 µM (inactive)
same,GI50,[15],13.4 µM (inactive)
same,GI50,[16],44.2 µM (inactive)
same,GI50,[17],42.2 µM (inactive)
same,GI50,[48],42.5 µM (inactive)
same,GI50,[18],41.7 µM (inactive)
same,GI50,[19],37.8 µM (inactive)
same,GI50,[20],60.1 µM (inactive)
same,GI50,[21],> 100 µM (inactive)
same,GI50,[22],28.4 µM (inactive)
same,GI50,[23],53.1 µM (inactive)
same,GI50,[24],75.2 µM (inactive)
same,GI50,[25],56.2 µM (inactive)
same,GI50,[49],51.3 µM (inactive)
same,GI50,[27],20.5 µM (inactive)
same,GI50,[28],20 µM (inactive)
same,GI50,[29],57.8 µM (inactive)
same,GI50,[30],40.3 µM (inactive)
same,GI50,[31],45 µM (inactive)
same,GI50,[50],18.2 µM (inactive)
same,GI50,[32],39.3 µM (inactive)
same,GI50,[33],43.2 µM (inactive)
same,GI50,[51],37.2 µM (inactive)
same,GI50,[34],36.8 µM (inactive)
same,GI50,[35],> 100 µM (inactive)
same,GI50,[36],44.8 µM (inactive)
same,GI50,[52],32.6 µM (inactive)
same,GI50,[37],35.2 µM (inactive)
same,GI50,[53],41.1 µM (inactive)
same,GI50,[59],> 100 µM (inactive)
same,GI50,[38],49.9 µM (inactive)
same,GI50,[39],47.8 µM (inactive)
same,GI50,[54],54.6 µM (inactive)
same,GI50,[55],53.1 µM (inactive)
same,GI50,[40],55.3 µM (inactive)
same,GI50,[56],29.9 µM (inactive)
same,GI50,[41],48.1 µM (inactive)
same,GI50,[42],93.5 µM (inactive)
same,GI50,[43],> 100 µM (inactive)
same,GI50,[44],> 100 µM (inactive)
same,GI50,[45],41.7 µM (inactive)
same,GI50,[46],27.7 µM (inactive)
same,GI50,[57],42.3 µM (inactive)
